The structures appear in SMILES notation. Bounds are passed on as bounds.

Chain of recombinant human nicotinic acid receptor (NAR) (Q8TDS4 whole entry): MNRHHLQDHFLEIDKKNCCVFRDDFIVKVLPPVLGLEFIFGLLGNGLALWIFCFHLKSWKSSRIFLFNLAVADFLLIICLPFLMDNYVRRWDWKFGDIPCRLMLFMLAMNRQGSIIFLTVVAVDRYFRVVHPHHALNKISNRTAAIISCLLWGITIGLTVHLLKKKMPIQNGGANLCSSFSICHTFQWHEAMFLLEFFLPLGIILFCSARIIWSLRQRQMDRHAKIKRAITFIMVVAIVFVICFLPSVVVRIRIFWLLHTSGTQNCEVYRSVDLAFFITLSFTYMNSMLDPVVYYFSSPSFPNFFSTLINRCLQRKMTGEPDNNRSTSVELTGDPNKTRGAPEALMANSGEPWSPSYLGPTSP

One test concerns the target recombinant human nicotinic acid receptor (NAR) (Homo sapiens, UniProt Q8TDS4). Nature of the test: Nicotinic Acid Receptor Assay: inhibition of forskolin-stimulated cAMP accumulation in CHO cells (MesoScale Discovery cAMP kit). Format: cell-based. The settings on record: NA EC50 camp, inhibition of forskolin-stimulated cAMP accumulation, CHO cells expressing recombinant human NAR. In short, it runs like this:
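Compounds were diluted in PBS containing 6 μM forskolin and incubated with cells for 30 min at room temperature. cAMP was quantified by the MesoScale kit against an on-plate standard curve.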
(Changes in cAMP serve as a functional read-out for many G protein-coupled receptors.)
By EC50 is commonly meant the concentration at which the effect is half-maximal. On to `CCc1cc(=O)oc2nc[nH]c(=O)c12` [Compound 807], for which the EC50 is above 10000 nM. On the same count and under the same terms, next, `CC1(CCCc2cc(=O)oc3nc(C(F)F)[nH]c(=O)c23)CC1` [Compound 811]: 22 nM.

Still in this test, the particulars now being: inhibition of forskolin-stimulated cAMP accumulation, CHO cells expressing recombinant human NAR; read-out: NA EC50 camp.
Regarding `CCOn1c(=O)[nH]c2oc(=O)cc(CCC3CCC3)c2c1=O` [Compound 777], the EC50 was 5600 nM. Turning to `CCCCc1cc(=O)oc2c1c(=O)[nH]c(=O)n2OCC` [Compound 778], the EC50 amounted to 9150 nM. In the case of `CCCCc1cc(=O)oc2[nH]c(=O)n(OCC)c(=O)c12` [Compound 779], the EC50 came out at 2850 nM. Still for that read-out and setting: for `O=c1cc(CCC2CC2)c2c(=O)n(C3CCC3)c(=O)[nH]c2o1` [Compound 780] the value was 36 nM; for `CCn1c(=O)[nH]c2oc(=O)cc(CCC3CCCC3)c2c1=O` [Compound 781], 68 nM.

In the case of `CCn1c(=O)[nH]c2oc(=O)cc(CCCC3CC3)c2c1=O` [Compound 782], the EC50 was 94 nM. `CCn1c(=O)[nH]c2oc(=O)cc(CCC3CCC3)c2c1=O` [Compound 783]: the EC50 came to 64 nM.

On to `O=c1cc(CCCC2CC2)c2c(=O)n(C3CCC3)c(=O)[nH]c2o1` [Compound 784], for which the EC50 came to 17.9 nM.

Take `CCOc1nc(=O)[nH]c2oc(=O)cc(CCC3CCC3)c12` [Compound 786]: the EC50 worked out at 5330 nM. `CCCCc1cc(=O)oc2[nH]c(=O)nc(OCCOC)c12` [Compound 787]: the EC50 turned out to be 682 nM. Turning to `CCCCc1cc(=O)oc2[nH]c(=O)nc(OCF)c12` [Compound 788], the EC50 was found to be 38.5 nM. Turning to `O=c1nc(OCF)c2c(CCCC3CC3)cc(=O)oc2[nH]1` [Compound 789], the EC50 was determined as 88 nM. The same measure, in the same setting: next, `CCCCc1cc(=O)oc2nc(O[C@H]3C[C@H](COCc4ccccc4)C3)[nH]c(=O)c12` [Compound 791]: 50 nM; `CCCCc1cc(=O)oc2c1c(=O)[nH]c(=O)n2N1CCOCC1` [Compound 796]: above 10000 nM; `CCCCc1cc(=O)oc2[nH]c(=O)n(N3CCOCC3)c(=O)c12` [Compound 797]: above 1000 nM. `CCCCc1cc(=O)oc2c1c(=O)[nH]c(=O)n2OCc1ccccc1` [Compound 798]: the EC50 was above 10000 nM. Turning to `CCCCc1cc(=O)oc2[nH]c(=O)n(OCc3ccccc3)c(=O)c12` [Compound 799], the EC50 is above 10000 nM. Still for that read-out and setting: for `COCCn1c(=O)[nH]c2oc(=O)cc(CCC3CC3)c2c1=O` [Compound 800] the value was above 10000 nM; for `COCCn1c(=O)[nH]c(=O)c2c(CCC3CC3)cc(=O)oc21` [Compound 801], above 10000 nM. Turning to `O=c1cc(CCCC2CC2)c2c(=O)n(CF)c(=O)[nH]c2o1` [Compound 802], the EC50 is 12 nM. `CCCCc1cc(=O)oc2[nH]c(=O)n(CF)c(=O)c12` [Compound 803]: the EC50 stood at 3450 nM. As for `O=c1cc(CCCC2CC2)c2c(=O)n(CCF)c(=O)[nH]c2o1` [Compound 804], the EC50 was 178 nM. The same measure, in the same setting: next, `CCCCc1cc(=O)oc2c1c(=O)[nH]c(=O)n2O` [Compound 805]: 2060 nM; `CCCCc1cc(=O)oc2[nH]c(=O)n(O)c(=O)c12` [Compound 806]: 256 nM. The same measure, in the same setting: for `CCc1cc(=O)n(C)c2[nH]c(=O)[nH]c(=O)c12` [Compound 808] the value was above 10000 nM; for `CCCCc1cc(=O)oc2nc(CF)[nH]c(=O)c12` [Compound 809], 187 nM; for `Cc1cc(=O)oc2nc(CF)[nH]c(=O)c12` [Compound 810], above 10000 nM. `CCC(C)CCc1cc(=O)oc2nc(C(F)F)[nH]c(=O)c12` (centres unmarked) [Compound 812]: the EC50 was found to be 40 nM. On the same count and under the same terms, next, `CCCCc1cc(=O)oc2c1c(=O)[nH]c(=O)n2CF` [Compound 813]: 256 nM; `O=c1cc(CCCC2CC2)c2c(=O)n(C(F)F)c(=O)[nH]c2o1` [Compound 814]: 161 nM.

Consider `CCCCc1cc(=O)oc2[nH]c(=O)n(C(F)F)c(=O)c12` [Compound 816], for which the EC50 is 291 nM. Still for that read-out and setting: next, `CCCc1cc(=O)oc2[nH]c(=O)n(CF)c(=O)c12` [Compound 817]: 1450 nM. Still for that read-out and setting: next, `CCCCc1cc(=O)oc2[nH]c(=O)n(CCF)c(=O)c12` [Compound 818]: 308 nM.

Turning to `CCc1cc(=O)oc2[nH]c(=O)n(CCF)c(=O)c12` [Compound 819], the EC50 came out at 1540 nM. Same read-out and setting: next, `CCCCc1cc(=O)oc2[nH]c(=O)n(CC(F)F)c(=O)c12` [Compound 821]: 142 nM; `O=c1nc(OCCF)c2c(CCCC3CC3)cc(=O)oc2[nH]1` [Compound 824]: 91 nM; `CCCc1cc(=O)oc2[nH]c(=O)nc(OCCF)c12` [Compound 825]: 616 nM.

With `COn1c(=O)nc(OCCF)c2c(CCC3CCC3)cc(=O)oc21` [Compound 826], the EC50 was found to be 3250 nM. As to `CCCCc1cc(=O)oc2[nH]c(=O)nc(OCCF)c12` [Compound 827], the EC50 amounted to 690 nM.

Regarding `CCCCc1cc(=O)oc2[nH]c(=O)nc(OCC(F)F)c12` [Compound 828], the EC50 was found to be 407 nM.

On to `CCCCc1cc(=O)oc2[nH]c(=O)nc(OCC(F)(F)F)c12` [Compound 829], for which the EC50 came to 882 nM. Take `O=c1nc(OCC(F)F)c2c(CCC3CCC3)cc(=O)oc2[nH]1` [Compound 830]: the EC50 was found to be 112 nM. Same read-out and setting: for `O=c1nc(OCC(F)F)c2c(CCCC3CC3)cc(=O)oc2[nH]1` [Compound 831] the value was 531 nM; for `CCCc1cc(=O)oc2[nH]c(=O)nc(OCF)c12` [Compound 832], 304 nM.

For the molecule `CCCCCCc1cc(=O)oc2[nH]c(=O)nc(OCF)c12` [Compound 833], the EC50 was determined as 511 nM.

For the origin of these results see patent US7737155B2, “Nitrogen-containing heterocyclic compounds and methods of use thereof” (Schering Corporation, priority 2005, dated 2010).
